The values that follow come from US20260232578A1, “COMPOSITIONS AND METHODS FOR TRANSMUCOSAL ABSORPTION” (Tonix Pharma Limited, priority 2012, published 2026).

A short description of series [1]: in vivo. The settings on record: beagle, dog. As to the method:
Each dog was sampled at pre-dose before and after Propofol (when possible) and at 5, 10 and 20 minutes post-dose.

The nature of series [2]: in vivo. The conditions noted are these: female, beagle, dog; for AUC(0-t) / AUC(0-inf): 1.79 mg; for AUC(0-t): AUC0-24 h; for AUC(0-inf): AUC0-∞h. Here is the method:
The protocol was designed as outlined in Table 23.
The method requires a lithium heparinized plasma sample volume of 200 μl. The extraction is a liquid liquid extraction with hexane, and the extracts are injected using an HPLC system and an […] (Applied Biosystems) for the MS/MS detection, with a “Onyx monolithic Phenomenex C18 100×3.0 mm” column.
Concentrations of the samples are calculated using Watson® 7.2.0.03 directly from chromatograms after automatic integration by Analyst® 1.5.1 and expressed as ng/mL. Mean plasma concentrations will be calculated (when calculable, i.e. n>2) using individual concentrations and will be expressed with the corresponding standard deviation value and variation coefficients (when calculable, i.e. n>3) (with CV(%)=(SD/mean)×100). The individual plasma concentrations are tabulated for each dog and scheduled sampling time. Concentrations below the LLOQ are designated as “BLQ.” All BLQ concentrations are substituted by zero for calculation of the descriptive statistics of the concentrations.
Pharmacokinetic analysis is carried out using […]® (Version 4.3 (Thermo Electron Corporation)). An independent model (non compartmental analysis) is used. All BLQ values in the absorption phase are substituted by zero, except for BLQ values between evaluable concentrations, which are treated as missing values, before the calculation of the pharmacokinetic variables. The terminal BLQ values are ignored. The following pharmacokinetic parameters are calculated:
5 non-naive female dogs are used, each dog receiving the test substance by oral administration via nasogastric tube to the stomach (NG) administration, sublingual administration (SL), and by intravenous (IV) administration. There is a “wash-out” period of at least two weeks between each type of administration. Blood samples are drawn as follows:
A single NG dose of 0.14 mg/kg (under a volume of 5 ml/kg and a solution concentration of 0.028 mg/mL) is administered.
After a wash-out period of at least 2 weeks, dogs are sedated using propofol (6.5 mg/kg IV). They will be then given a single sublingual dose of 0.14 mg/kg (under a volume of 0.056 mL/kg and a solution concentration of 2.5 mg/mL).
After a wash-out period of at least 2 weeks, dogs are given a single IV dose of 0.14 mg/kg (under a volume of 1 mL/kg, bolus of approximately 30 sec, and a solution concentration of 0.14 mg/mL).
Blood sampling was designed to minimize animal suffering and to ensure the quality of the biological samples, and was adapted from basic procedures commonly used in studies performed in dogs. Serial blood samples (1 tube of approximately 5 mL) are collected from a jugular vein using vacuum tubes containing lithium heparin. After sealing each tube, the blood samples are manually agitated and stored on ice until centrifugation (within 30 minutes of sampling). The samples are centrifuged at 1500 g, at 4° C., for 10 minutes. The entire resultant plasma obtained from each tube is immediately transferred to suitably labeled polypropylene tubes (3 aliquots of plasma of at least 500 μl each), which are stored upright at approximately −80° C. and protected from light until bioanalysis.
The dogs are fasted overnight before each administration, and food is given to the dogs 4 hours after each treatment. […] In each of the three routes, a potassium phosphate buffer (pH 7.4) is used as the vehicle.
As referred to in Example 4, a study was designed in order to assess the effects of the compositions and methods of the invention. […] The pharmacokinetic parameters were then calculated. A summary of the study design is as follows:
Blood was collected in a fasted condition for all three routes of administration. […] Briefly, the method involved liquid-liquid extraction with hexane. The extracts were injected using an HPLC system and an API4000® (Applied Biosystems) for the MS/MS detection, with an “Onyx monolithic Phenomenex C18 100×3.0 mm” column.

Series [3] is described as follows: Pharmacokinetics of sublingual cyclobenzaprine HCl tablets with and without K2HPO4 (Example 10). The format is in vivo, beagle dog. The conditions noted are these: 2.4 mg sublingual tablet with basifying agent. Here is the method:
Pharmacokinetic parameters were then calculated and compared.
For sublingual dosing, dogs were given propofol and were put in a lying position (ventral decubitis). The mouth was gently opened and the tablet was placed under the tongue. The tongue was then immediately replaced in its initial position and the mouth was closed. The dog was left in the same position until waking. […] After the washout period of two weeks, dogs were sedated in the same way and given a single sublingual dose of the formulation without basifying agent. Blood samples after both types of treatment were taken pre-dose and at 5, 10, 20, 30, and 45 minutes, and at 1, 2, 3, 4, 6, 8, and 10 hours after dose administration. Blood was taken from the jugular vein.
The method involved liquid-liquid extraction with hexane. The extracts were injected using an HPLC system and an API4000® (Applied Biosystems) for MS/MS detection, with an “Onyx monolithic Phenomenex C18 100×3.0 mm” column.
Sublingual administration was performed by placing the control tablet or tablet with K2HPO4 under the tongue when female beagles were slightly anesthetized with propofol.

The conditions of series [4]: humans, cited from earlier work.
[5] abbreviates: 2.5 mg immediate release tablets (Winchell).
Setting [6] is: 5.0 mg immediate release tablets (Winchell).
The mark [7] stands for this setting: 10 mg immediate release tablets (Winchell).

Read-outs that look alike come from different tables or passages of the source.

By AUC(0-t) is commonly meant the area under the concentration-time curve up to a stated or last time point. In general, AUC(0-inf) refers to the area under the concentration-time curve extrapolated to infinity. The low end stands for less exposure, the high end for more exposure. As a reminder, the bioavailability is dose-corrected exposure relative to a reference, in per cent. Lower therefore signals little systemic uptake. In the case of `CN(C)CCC=C1c2ccccc2C=Cc2ccccc21` [cyclobenzaprine, 3-(5H-dibenzo[a,d]cyclohepten-5-ylidene)-N,N-dimethyl-1-propanamine], the “bioavailability, sublingual vs IV calculated in the same condition” value in series [1] is recorded as “about 200%”. Also, in series [2], the “increase in bioavailability, sublingual vs PO” value is ~77 fold; the AUC(0-t) came to 127 ± 37.1 ng·h/mL; the AUC(0-inf) stood at 129 ± 36.4 ng·h/mL. Further, in series [2] (bioavailability, conclusion), the bioavailability is ~100%. In series [2] (iv, 0.14 mg/kg, plasma level), this compound had a concentration at 0.5 h of 52.3 ng/mL and a concentration at 6 h of 3.4 ng/mL. In series [2] (iv), this compound registered an AUC(0-t) of 43.5 ± 3.77 ng·h/mL and an AUC(0-inf) of 44.9 ± 4.15 ng·h/mL. Moreover, the dbmnAUC0-0.75 h in series [3] (Beagles 12.5 kg) was determined as 0.000708 kg·h/mL. In series [3] (Beagles), this compound showed a dnAUC0-0.75 h of 5.65e-05 h/mL. In series [4] (setting [5]), the AUC0-8 h was 11.1 ng·h/mL and the “AUC0-∞h” value is 44.2 ng·h/mL. Also, in series [4] (setting [6]), the AUC0-8 h is 23.0 ng·h/mL and the “AUC0-∞h” value was 89.5 ng·h/mL. In series [4] (setting [7]), the AUC0-8 h is 45.9 ng·h/mL and the “AUC0-∞h” value is 178.2 ng·h/mL.
